Experimental data taken from ChEMBL document CHEMBL1201862, “PubChem BioAssay data set” (2004).
Where “and” joins values, the source holds several entries; their conditions need not be identical. Equal values may be shown once.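 Exposure lasted 48 hours, with cells grown in 96-well plates and compounds tested at five concentrations. The concentration for 50% growth inhibition is given as GI50.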 Calls of active or inactive are those of the source. Rule as the data show it: active = GI50 up to about 1.1 µM and inactive = higher. Where a SMILES comes first, the peptide text is derived from it. The star is where a group is joined. Boc = CC(C)(C)OC(=O)*

Key:
Assay in all cases: DTP human tumour cell line panel, 48 h
HOP-62 = test system: HOP-62
HOP-92 = test system: HOP-92
HT-29 = test system: HT-29
Hs-578T = test system: Hs-578T
IGROV-1 = test system: IGROV-1
MCF7 = test system: MCF7
MDA-MB-231 = test system: MDA-MB-231
MDA-MB-435 = test system: MDA-MB-435
MDA-N = test system: MDA-N
Malme-3M = test system: Malme-3M
NCI/ADR-RES = test system: NCI/ADR-RES
OVCAR-3 = test system: OVCAR-3
OVCAR-4 = test system: OVCAR-4
RPMI-8226 = test system: RPMI-8226
RXF 393 = test system: RXF 393
SF-268 = test system: SF-268
SK-MEL-2 = test system: SK-MEL-2
SK-OV-3 = test system: SK-OV-3
SN12C = test system: SN12C
SW-620 = test system: SW-620

SMILES | GI50 (HOP-62) | GI50 (HOP-92) | GI50 (HT-29) | GI50 (Hs-578T) | GI50 (IGROV-1) | GI50 (MCF7) | GI50 (MDA-MB-231) | GI50 (MDA-MB-435) | GI50 (MDA-N) | GI50 (Malme-3M) | GI50 (NCI/ADR-RES) | GI50 (OVCAR-3) | GI50 (OVCAR-4) | GI50 (RPMI-8226) | GI50 (RXF 393) | GI50 (SF-268) | GI50 (SK-MEL-2) | GI50 (SK-OV-3) | GI50 (SN12C) | GI50 (SW-620)
CCCCCCCCCCCCCCCCCCOCC(COP(=O)([O-])OCC[N+](C)(C)C)OC (stereo unspecified) [EDELFOSINE] | 19.2 µM (inactive) | 8.75 µM (inactive) | 7.28 µM (inactive) | > 100 µM (inactive) | 6.67 µM (inactive) | 27.5 µM (inactive) | 59.7 µM (inactive) | 98.4 µM (inactive) | > 69.3 µM (inactive) | 29.6 µM (inactive) | 42.3 µM (inactive) | 34.3 µM (inactive) | 26.6 µM (inactive) | 20.9 µM (inactive) | 13.9 µM (inactive) | 17.2 µM (inactive) | 31.3 µM (inactive) | 18.2 µM (inactive) | 12.1 µM (inactive) | 19.1 µM (inactive)
O=C1c2scnc2-c2nccc3c2c1nc1ccccc13 [KUANONIAMINE A] | 1.04 µM (active) | 1.88 µM (inactive) | 2.55 µM (inactive) | 1.8 µM (inactive) | 0.774 µM (active) | 0.299 µM (active) | 0.318 µM (active) | 0.191 µM (active) | 0.196 µM (active) | 0.684 µM (active) | 0.231 µM (active) | < 0.0134 µM (active) | 1.16 µM (inactive) | 1.37 µM (inactive) | 1.77 µM (inactive) | 1.78 µM (inactive) | 1.01 µM (active) | 2.54 µM (inactive) | 1.4 µM (inactive) | 0.288 µM (active)
Cn1cnc2c1c(=O)n(CCNCCO)c(=O)n2C | > 100 µM (inactive) | > 100 µM (inactive) | > 100 µM (inactive) | > 100 µM (inactive) | > 100 µM (inactive) | > 100 µM (inactive) | > 100 µM (inactive) | > 100 µM (inactive) | > 100 µM (inactive) | > 100 µM (inactive) | > 100 µM (inactive) | > 100 µM (inactive) | > 100 µM (inactive) | > 100 µM (inactive) | > 100 µM (inactive) | > 100 µM (inactive) | > 100 µM (inactive) | > 100 µM (inactive) | > 100 µM (inactive) | > 100 µM (inactive)
OCCNCNc1nc(NCNCCO)nc(N(CNCCO)CNCCO)n1 | 19.5 µM (inactive) | 21.9 µM (inactive) | 21.7 µM (inactive) | 32 µM (inactive) | 22.6 µM (inactive) | 28.1 µM (inactive) | 22.8 µM (inactive) | 18.2 µM (inactive) | 19.2 µM (inactive) | 18.5 µM (inactive) | 24.4 µM (inactive) | 22.6 µM (inactive) | 25.9 µM (inactive) | > 43.8 µM (inactive) | 15 µM (inactive) | 23.7 µM (inactive) | 21.5 µM (inactive) | > 43.7 µM (inactive) | 22.3 µM (inactive) | 19.8 µM (inactive)
CC1OC(Oc2c(-c3cc(O)c(O)c(O)c3)oc3cc(O)cc(O)c3c2=O)C(O)C(O)C1O (stereo unspecified) | > 100 µM (inactive) | > 100 µM (inactive) | > 100 µM (inactive) | > 100 µM (inactive) | > 100 µM (inactive) | > 100 µM (inactive) | 87.9 µM (inactive) | 57.4 µM (inactive) | 31 µM (inactive) | > 100 µM (inactive) | > 100 µM (inactive) | > 100 µM (inactive) | > 100 µM (inactive) | > 100 µM (inactive) | > 100 µM (inactive) | > 100 µM (inactive) | > 100 µM (inactive) | > 100 µM (inactive) | > 100 µM (inactive) | > 100 µM (inactive)
COc1cc([C@H]2OC[C@H]3[C@@H]2CO[C@@H]3c2cc(OC)c3c(c2)OCO3)cc(OC)c1OC | 55.6 µM (inactive) | 46.9 µM (inactive) and 60.7 µM (inactive) | 37.3 µM (inactive) and 54.6 µM (inactive) | 51.3 µM (inactive) and 59.3 µM (inactive) | 92.3 µM (inactive) and 66.4 µM (inactive) | 60.5 µM (inactive) and 50.5 µM (inactive) | > 100 µM (inactive) and 50.4 µM (inactive) | 76 µM (inactive) | 65.2 µM (inactive) |  | 23.4 µM (inactive) and 33.3 µM (inactive) | 87.1 µM (inactive) | 48.5 µM (inactive) and 43.7 µM (inactive) | 28 µM (inactive) and 35 µM (inactive) |  | 68.2 µM (inactive) and 59.2 µM (inactive) | > 100 µM (inactive) | > 100 µM (inactive) | 96.8 µM (inactive) | > 100 µM (inactive)
O=C1c2ccc3cc(CCl)cc(O)c3c2C(=O)c2cccc(O)c21 | 3.38 µM (inactive) | 4.58 µM (inactive) |  | > 10 µM (inactive) | > 10 µM (inactive) | 0.729 µM (active) | 1.08 µM (active) | 0.179 µM (active) | 0.169 µM (active) | 0.0151 µM (active) | 2.02 µM (inactive) | 0.152 µM (active) | 2.67 µM (inactive) | 2.21 µM (inactive) | 2.55 µM (inactive) | 2.16 µM (inactive) | 1.64 µM (inactive) | > 10 µM (inactive) | 1.5 µM (inactive) | 0.145 µM (active)
CN(O)C(=O)c1ccc(OCc2cccc(Cl)c2)cc1 | 16.7 µM (inactive) | 58.5 µM (inactive) | 14.6 µM (inactive) | 71.3 µM (inactive) | 16.7 µM (inactive) | 32.4 µM (inactive) | > 81.1 µM (inactive) | 23.6 µM (inactive) | 35.8 µM (inactive) |  | 13.7 µM (inactive) | 19.2 µM (inactive) | 21.6 µM (inactive) | 14.8 µM (inactive) | 25.6 µM (inactive) | 21.2 µM (inactive) | 34.4 µM (inactive) | 24.3 µM (inactive) | 18 µM (inactive) | 32.8 µM (inactive)
CCC1=C(c2ccc(OC)cc2)CC[C@]2(CCNC2=O)[C@@H]1C | 51.2 µM (inactive) | 40.7 µM (inactive) | 23.2 µM (inactive) | 24.5 µM (inactive) | 40.3 µM (inactive) | 21.9 µM (inactive) | 39.1 µM (inactive) | 19.6 µM (inactive) | 22.5 µM (inactive) | 25.8 µM (inactive) | 31.2 µM (inactive) | 22.7 µM (inactive) | 22 µM (inactive) | 16.3 µM (inactive) | 55.2 µM (inactive) | 33.1 µM (inactive) | 21.3 µM (inactive) | 45.8 µM (inactive) | 37.8 µM (inactive) | 44.2 µM (inactive)
CC(C)c1c(O)ccc2c1CCC1C(C)(C)CCCC21C (stereo unspecified) |  | 18.6 µM (inactive) | 16.9 µM (inactive) | 26.7 µM (inactive) | 16.3 µM (inactive) | 19.1 µM (inactive) | 19 µM (inactive) | 18.6 µM (inactive) | 17.1 µM (inactive) | 18.6 µM (inactive) | 16.9 µM (inactive) | 18.6 µM (inactive) | 17.5 µM (inactive) | 22.9 µM (inactive) | 15.1 µM (inactive) | 19.9 µM (inactive) | 16.7 µM (inactive) | 18.9 µM (inactive) | 14.5 µM (inactive) | 20 µM (inactive)
COc1ccc(/C=C2\CCCC(CN(C)C)C2=O)cc1 (stereo unspecified) | 17.5 µM (inactive) | 4.35 µM (inactive) | 1.75 µM (inactive) | 3.02 µM (inactive) | 2.69 µM (inactive) | 0.638 µM (active) | 3.03 µM (inactive) | 2.61 µM (inactive) | 2.96 µM (inactive) | 2.53 µM (inactive) | 2.63 µM (inactive) | 1.94 µM (inactive) | 1.76 µM (inactive) | 0.223 µM (active) |  | 3.03 µM (inactive) | 3.36 µM (inactive) | 9.89 µM (inactive) | 2.56 µM (inactive) | 0.891 µM (active)
CC[C@@H](C)[C@H]([C@H](CC(=O)N1CCC[C@@H]1[C@@H](OC)[C@H](C)C(=O)N[C@H](Cc1ccccc1)c1nccs1)OC)N(C)C(=O)[C@H](NC(=O)[C@@H](C(C)C)N(C)C)C(C)C | 0.000193 µM (active) | 0.00104 µM (active) | 2.24e-05 µM (active) | < 0.01 µM (active) | 0.000681 µM (active) | < 0.01 µM (active) | < 0.01 µM (active) | < 0.01 µM (active) | < 0.01 µM (active) | 0.000624 µM (active) | < 0.01 µM (active) | 3.11e-05 µM (active) | 0.000745 µM (active) | 0.000143 µM (active) | 0.000191 µM (active) | 0.00039 µM (active) | 0.000125 µM (active) |  | 0.000486 µM (active) | 9.12e-05 µM (active)
CC(NC(=O)C1CCCN1C(=O)CNC(=O)OC(C)(C)C)C(=O)O (stereo not drawn) (Boc-Gly-Pro-Ala-OH; configuration not given here) | > 100 µM (inactive) | 62.5 µM (inactive) | > 100 µM (inactive) | > 100 µM (inactive) | > 100 µM (inactive) | > 100 µM (inactive) | > 100 µM (inactive) | > 100 µM (inactive) | > 100 µM (inactive) | > 100 µM (inactive) | > 100 µM (inactive) | > 100 µM (inactive) |  | > 100 µM (inactive) | > 100 µM (inactive) | > 100 µM (inactive) | > 100 µM (inactive) | > 100 µM (inactive) | > 100 µM (inactive) | > 100 µM (inactive)
CC(=O)OCC1OC(N2C(C)=C(C(C)=O)C(c3ccc(Cl)cc3)C(C#N)=C2S)C(OC(C)=O)C(OC(C)=O)C1OC(C)=O (stereo unspecified) | > 100 µM (inactive) | 33.6 µM (inactive) | 42.7 µM (inactive) | 28.5 µM (inactive) | 57.5 µM (inactive) | 47 µM (inactive) | 87.5 µM (inactive) | 36.8 µM (inactive) | 42.5 µM (inactive) | 48.4 µM (inactive) | 8.71 µM (inactive) | 61.4 µM (inactive) | 51.6 µM (inactive) | 37.9 µM (inactive) | 52.8 µM (inactive) | 65.8 µM (inactive) | 37.6 µM (inactive) |  | 85.9 µM (inactive) | 5.46 µM (inactive)
